Values quoted from earlier work, collected in publication PMC8322648, “Brevibacillin 2V Exerts Its Bactericidal Activity via Binding to Lipid II and Permeabilizing Cellular Membranes” (Frontiers in Microbiology, 2021).

Details: ref Zhao et al., 2021; cited from earlier work

## Brevibacillin 2V
  stability in human plasma: good stability in human plasma
